By melting point is commonly meant the temperature, or range, at which the solid turns liquid.

Data set [1] concerns Chrysosporium keratinophilum. The experiment in a line: agar plate disc-diffusion, antifungal activity by inhibition zone. The class given is cell-based. Here is the method: (§1) The agar plate disc-diffusion method was applied. Sterilized filter papers (6 mm in diameter) were wetted with 10 μL of a solution of methyl 4-((5-(3-fluorophenyl)-4-phenyl-4H-1,2,4-triazol-3-ylthio)methyl)benzoate (III) to be tested, containing 10 mg/mL in DMSO, and the discs were allowed to air dry. The discs were then placed onto the surface of agar plates (nutrient agar for bacteria and Sabouraud's dextrose agar for fungi) seeded with the test organism. Each plate contained 15 mL of the agar medium, previously seeded with 0.2 mL of the broth culture of each organism pregrown for 18 hours. The plates were incubated at 37 °C for 48 hours, and 72 hours for fungi. The inhibition zones were measured in mm. Discs impregnated with DMSO were used as a control, and its inhibition zone was subtracted from the tested compound actual inhibition zone.

The test system of another data set is Aspergillus flavus. Described as above. The class given is cell-based. The protocol: as §1
A further data set has as its system Staphylococcus aureus. In words: agar plate disc-diffusion, antibacterial activity by inhibition zone. The class given is cell-based. The conditions noted are these: Staphylococcus aureus (Gram positive). The protocol: as §1
On the technique in general: A growth-free zone around the sample is the usual read-out of agar diffusion tests.

Another data set concerns Escherichia coli. Described as above. Format: cell-based. The conditions noted are these: Escherichia coli (Gram negative). The protocol:
as §1

For a further data set, the system named is Bacillus Cereus. The description is as above. Format: cell-based. The settings on record: Bacillus Cereus (Gram positive). The protocol: as §1
For another data set, the system named is Pseudomonas aeruginosa. Described as above. The class given is cell-based. The settings on record: Pseudomonas aeruginosa (Gram negative). Here is the method:
as §1

The mark [2] stands for this setting: A = concentration of comp. = 10,000 μL.
Where [3] appears, read: B = concentration of comp. = 30,000 μL.
Setting [4] is: C = concentration of comp. = 50,000 μL.

As for `O=C(O)c1cn(C2CC2)c2cc(N3CCNCC3)c(F)cc2c1=O` [Cip., ciprofloxacin, reference compound], the inhibition zone in data set [1] (setting [2]) stood at 29 mm; in data set [1] (setting [3]) it was 30 mm; in data set [1] (setting [4]), 53 mm; in the data set with Aspergillus flavus (setting [2]), 29 mm; in the data set with Aspergillus flavus (setting [3]) it was 30 mm; with Aspergillus flavus (setting [4]) it was 42 mm. In addition, the inhibition zone with Staphylococcus aureus (setting [2]) was 43 mm; in the data set with Staphylococcus aureus (setting [3]), 44 mm; in the data set with Staphylococcus aureus (setting [4]), 53 mm; with Escherichia coli (setting [2]) it was 30 mm; in the data set on Escherichia coli (setting [3]), 39 mm; with Escherichia coli (setting [4]), 60 mm. For the same compound, the inhibition zone in the data set with Bacillus Cereus (setting [2]) amounted to 29 mm; in the data set on Bacillus Cereus (setting [3]), 30 mm; in the data set on Bacillus Cereus (setting [4]) it was 42 mm; in the data set on Pseudomonas aeruginosa (setting [2]), 29 mm; with Pseudomonas aeruginosa (setting [3]), 30 mm; in the data set on Pseudomonas aeruginosa (setting [4]) it was 53 mm.
For `COC(=O)c1ccc(CSc2nnc(-c3cccc(F)c3)n2-c2ccccc2)cc1` [III, methyl 4-((5-(3-fluorophenyl)-4-phenyl-4H-1,2,4-triazol-3-ylthio)methyl)benzoate], the melting point is 185 to 186 °C. For the same compound, the inhibition zone in data set [1] (setting [2]) is recorded as 28 mm. The same compound returned an inhibition zone in data set [1] (setting [3]) of 30 mm. In addition, in data set [1] (setting [4]), the inhibition zone turned out to be 49 mm. In the data set on Aspergillus flavus (setting [2]), this compound came in with an inhibition zone of 19 mm. The same compound had an inhibition zone with Aspergillus flavus (setting [3]) of 24 mm. The inhibition zone with Aspergillus flavus (setting [4]) was determined as 34 mm. In the data set on Staphylococcus aureus (setting [2]), this compound registered an inhibition zone of 14 mm. Besides, the inhibition zone in the data set on Staphylococcus aureus (setting [3]) amounted to 20 mm. The same compound returned an inhibition zone with Staphylococcus aureus (setting [4]) of 23 mm. Further, the inhibition zone in the data set on Escherichia coli (setting [2]) was 29 mm. Moreover, the inhibition zone with Escherichia coli (setting [3]) was found to be 38 mm. Further, the inhibition zone in the data set on Escherichia coli (setting [4]) was 54 mm. The same compound returned an inhibition zone in the data set with Bacillus Cereus (setting [2]) of 28 mm. The same compound showed an inhibition zone in the data set with Bacillus Cereus (setting [3]) of 29 mm. For the same compound, in the data set on Bacillus Cereus (setting [4]), the inhibition zone is 40 mm. This compound returned an inhibition zone with Pseudomonas aeruginosa (setting [2]) of 24 mm. In the data set with Pseudomonas aeruginosa (setting [3]), this compound had an inhibition zone of 33 mm. The same compound gave an inhibition zone with Pseudomonas aeruginosa (setting [4]) of 40 mm.

Values taken from US12054464B1, “Methyl 4-((5-(3-fluorophenyl)-4-phenyl-4H-1,2,4-triazol-3-ylthio)methyl)benzoate as an antimicrobial compound” (KING FAISAL UNIVERSITY, priority 2023, dated 2024).
